Source: the supplement of paper PMC11451515

How the values were obtained:
Test in all cases: AUC of viability dose-response curve (% viability x log10 dose units); higher = less sensitive
Conditions in all cases: 48 h
P12-Ichikawa = tested on: P12-Ichikawa
Summary of the method: (§1)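 Area under the curve was integrated by trapezoidal rule from a log-logistic fit of normalised viability, with curves exceeding full viability scaled and quality-control failures removed. The fit had four parameters over log10 doses. Viability came from CellTiter-Glo One luminescence, normalised per plate to DMSO and cell-free wells, after leukemia cells adapted to each medium (500 or 1000 cells/well, 1536-well plates) were exposed to library compounds in DMSO for 48 h at 37°C. The 11 threefold doses ran from 47 μM to 0.79 nM.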

NOMO1 = tested on: NOMO1
Summary of the method: as §1

SEM cells = tested on: SEM cells
Summary of the method: as §1

[1] = RPMI 5 mM glucose + 10% dialyzed FBS

Row | Structure (SMILES) | AUC of viability dose-response curve (P12-Ichikawa; HPLM + 10% dialyzed FBS) | AUC of viability dose-response curve (P12-Ichikawa; RPMI 5 mM glucose + 10% FBS) | AUC of viability dose-response curve (P12-Ichikawa; [1]) | AUC of viability dose-response curve (NOMO1; HPLM + 10% dialyzed FBS) | AUC of viability dose-response curve (NOMO1; RPMI 5 mM glucose + 10% FBS) | AUC of viability dose-response curve (NOMO1; [1]) | AUC of viability dose-response curve (SEM cells; HPLM + 10% dialyzed FBS) | AUC of viability dose-response curve (SEM cells; RPMI 5 mM glucose + 10% FBS) | AUC of viability dose-response curve (SEM cells; [1])
1 | CCC(=O)N1CCN(CC1)C2=C(C=C(C=C2)N3C(=O)\C=C/C4=C3C5=CC(=CC=C5N=C4)C6=CN=C7C=CC=CC7=C6)C(F)(F)F | 406 | 328 | 347 | 376 | 388 | 352 | 286 | 297 | 300
2 | CN(C)c1ccc(-c2nc3c(N4CCN(CC(=O)Nc5nccs5)CC4)c(Cl)cnc3[nH]2)cc1 | 468 | 466 | 428 | 431 | 466 | 460 | 429 | 420 | 421
3 | C[C@@H](Cc1cc2c(c(C(N)=O)c1)N(CCCO)CC2)NCCOc1ccccc1OCC(F)(F)F | 472 | 472 | 472 | 457 | 458 | 466 | 438 | 465 | 463
4 | CC1=CC/2=C(C=C1C)N(C[C@@H](O)[C@@H](O)[C@@H](O)CO)C/3=N/C(=O)NC(=O)C3=N2 | 458 | 449 | 451 | 462 | 472 | 460 | 474 | 428 | 474
5 | Cc1cc(/C=c2/sc3nc4ccccc4n3c2=O)c(C)n1-c1ccccc1 | 471 | 476 | 467 | 472 | 455 | 472 | 473 | 466 | 473
6 | CCN(CC)CCCC(C)Nc1ccnc2cc(Cl)ccc12 (stereo not drawn) | 416 | 416 | 418 | 382 | 416 | 416 | 477 | 468 | 468
7 | C[C@@H]1CC[C@@]2(CC[C@]3(C)\C(=C/C[C@@H]4[C@@]5(C)C[C@@H](O)[C@H](O)[C@@](C)(CO)[C@@H]5CC[C@@]34C)[C@@H]2[C@H]1C)C(O)=O | 468 | 472 | 460 | 446 | 445 | 468 | 385 | 455 | 295
8 | CCN1\C=C(C(O)=O)/C(=O)C2=C1C(=C(N3CCNC(C)C3)C(=C2)F)F (stereo not drawn) | 462 | 457 | 461 | 458 | 471 | 452 | 467 | 471 | 469
9 | Cc1ccc(C(=O)Nc2ccc([S+](=O)([O-])O)c3cc([S+](=O)([O-])O)cc([S+](=O)([O-])O)c23)cc1NC(=O)c1cccc(NC(=O)Nc2cccc(C(=O)Nc3cc(C(=O)Nc4ccc([S+](=O)([O-])O)c5cc([S+](=O)([O-])O)cc([S+](=O)([O-])O)c45)ccc3C)c2)c1 | 390 | 392 | 381 | 350 | 406 | 396 | 414 | 393 | 373
10 | Nc1ncnc2nc(-c3ccc(N4CCOCC4)nc3)cc(-c3cccc(Br)c3)c12 | 460 | 439 | 467 | 463 | 475 | 460 | 470 | 471 | 470
11 | CN1CCN(CC1)C2=CC3=C([NH]C(=N3)C/4=C(\N)C5=C(F)C=CC=C5NC4=O)C=C2 | 420 | 395 | 399 | 418 | 440 | 433 | 161 | 178 | 152
12 | COc1cc(C[C@@H](CO)[C@H](CO)Cc2ccc(O)c(OC)c2)ccc1O | 464 | 457 | 439 | 467 | 456 | 476 | 452 | 444 | 455
13 | Clc1ccc(C(c2ccc(Cl)cc2)[n+]2ccn(CC(OCc3ccc(Cl)cc3Cl)c3ccc(Cl)cc3Cl)c2)cc1 (stereo not drawn) | 438 | 432 | 444 | 441 | 441 | 440 | 432 | 415 | 440
14 | O=C(O)c1cccc(-c2noc(-c3ccccc3F)n2)c1 | 470 | 465 | 465 | 456 | 451 | 465 | 454 | 457 | 472
15 | COC(=O)CCC1=C(C)C2=CC3=NC(=CC4=C(C)C(=C([NH]4)C=C\5N=C(C=C1[NH]2)\C(=C5C)CCC(O)=O)C=C)\C6=C\C=C(/[C@@H](C(=O)OC)[C@@]36C)C(=O)OC | 469 | 450 | 457 | 393 | 433 | 397 | 428 | 441 | 473
16 | CC1(C)[C@@H](O)CC[C@@]2(C)[C@H]1CC[C@]3(C)[C@@H]2C(=O)\C=C/4[C@@H]5C[C@](C)(CC[C@]5(C)CC[C@@]34C)C(O)=O | 464 | 468 | 461 | 465 | 448 | 460 | 468 | 470 | 477
17 | CCn1c(C(=O)N(C2CC2)C2CC2)cc2c3c(ncn3C)c(Nc3cc(C)n(C)n3)nc21 | 466 | 473 | 467 | 472 | 473 | 464 | 454 | 446 | 435
